Measured values as given in US20200069691A1, “HETEROCYCLIC COMPOUNDS AS HIV PROTEASE INHIBITORS” (Merck Sharp & Dohme Corp., priority 2016, published 2020).
pIC50: −log10 of the molar value.

Molecular target: T1, wild-type HIV-1 protease (Human immunodeficiency virus type 1 group M subtype B, UniProt P04585)
T1 construct: Escherichia coli expressed wild-type HIV-1 protease protein
Test: Assay for Inhibition of Microbial Expressed HIV Protease (peptide substrate cleavage, LC-MS/MS readout)
Assay type: biochemical
Conditions: E. coli expressed wild-type HIV-1 protease, mean of at least two independent experiments, read-out: HIV Pr Enzyme HIV1 PR IC50
Outline: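 Cleavage of Val-Ser-Gln-Asn-(β-naphthyl)Ala-Pro-Ile-Val (400 μM) by recombinant HIV-1 protease ([…]) ran 1 h at 30 °C after a 30 min room-temperature inhibitor preincubation in 50 mM sodium acetate pH 5.5. Product peak areas by LC-MS/MS gave inhibition; values average at least two independent runs.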

Work on C[C@@H](c1cccc(C(=O)N2Cc3ccccc3C2)c1)N1C(=N)NC(c2ccccc2)(c2ccccc2)C1=O [Compound 331, 3-{(1S)-1-[3-(1,3-dihydro-2H-isoindol-2-ylcarbonyl)phenyl]ethyl}-2-imino-5,5-diphenylimidazolidin-4-one] yielded a pIC50 of 7.17.
N=C1NC(c2ccc(F)cc2)(c2ccc(F)cc2)C(=O)N1Cc1cccc(C(=O)N2CCC(n3c(=O)[nH]c4ncccc43)CC2)c1 [Compound 332, 1-{1-[(3-{[4,4-bis(4-fluorophenyl)-2-imino-5-oxoimidazolidin-1-yl]methyl}phenyl)carbonyl]piperidin-4-yl}-1,3-dihydro-2H-imidazo[4,5-b]pyridin-2-one] showed a pIC50 of 7.17.
For N=C1NC(c2ccccc2)(c2ccccc2)C(=O)N1Cc1cccc(C(=O)N2CCC(Oc3ccccc3)CC2)c1 [Compound 333, 2-imino-3-{3-[(4-phenoxypiperidin-1-yl)carbonyl]benzyl}-5,5-diphenylimidazolidin-4-one], the pIC50 was 7.16.
N=C1NC(c2ccccc2)(c2ccccc2)C(=O)N1Cc1cccc(C(=O)N2CCc3ccc(C(F)(F)F)cc3C2)c1 [Compound 334, 2-imino-5,5-diphenyl-3-(3-{[7-(trifluoromethyl)-3,4-dihydroisoquinolin-2(1H)-yl]carbonyl}benzyl) imidazolidin-4-one] gave a pIC50 of 7.15.
With CC(=O)N1CCN(C(=O)c2cccc(CN3C(=N)NC(c4ccc(F)cc4)(c4ccc(F)cc4)C3=O)c2)CC1 [Compound 335, 3-{3-[(4-acetylpiperazin-1-yl)carbonyl]benzyl}-5,5-bis(4-fluorophenyl)-2-iminoimidazolidin-4-one] the pIC50 was 7.15.
N=C1NC(c2ccccc2)(c2ccccc2)C(=O)N1Cc1cccc(C(=O)N2CCc3cc(C(F)(F)F)ccc3C2)c1 [Compound 336, 2-imino-5,5-diphenyl-3-(3-{[6-(trifluoromethyl)-3,4-dihydroisoquinolin-2(1H)-yl]carbonyl}benzyl) imidazolidin-4-one] was tested, and the pIC50 was 7.15.
N=C1NC(c2ccccc2)(c2ccccc2)C(=O)N1Cc1cccc(C(=O)N2CCn3c(Cc4ccccc4)cnc3C2)c1 [Compound 337, 3-{3-[(3-benzyl-5,6-dihydroimidazo [1,2-a]pyrazin-7(8H)-yl)carbonyl]benzyl}-2-imino-5,5-diphenylimidazolidin-4-one] gave a pIC50 of 7.14.
N=C1NC(c2ccc(F)cc2)(c2ccc(F)cc2)C(=O)N1Cc1cccc(C(=O)N2CCC(n3c(=O)[nH]c4ccccc43)CC2)c1 [Compound 338, 1-{1-[(3-{[4,4-bis(4-fluorophenyl)-2-imino-5-oxoimidazolidin-1-yl]methyl}phenyl)carbonyl]piperidin-4-yl}-1,3-dihydro-2H-benzimidazol-2-one] showed a pIC50 of 7.13.
In the case of N=C1NC(c2ccccc2)(c2ccccc2)C(=O)N1Cc1cccc(C(=O)N2CCn3ccnc3C2)c1 [Compound 339, 3-[3-(5,6-dihydroimidazo[1,2-a]pyrazin-7(8H)-ylcarbonyl)benzyl]-2-imino-5,5-diphenylimidazolidin-4-one], the pIC50 was 7.12.
COc1nnc2n1CCN(C(=O)c1cccc(CN3C(=N)NC(c4ccccc4)(c4ccccc4)C3=O)c1)C2 [Compound 340, 2-imino-3-{3-[(3-methoxy-5,6-dihydro[1,2,4]triazolo[4,3-a]pyrazin-7(8H)-yl)carbonyl]benzyl}-5,5-diphenylimidazolidin-4-one] gave a pIC50 of 7.12.
N=C1NC(c2ccccc2)(c2ccccc2)C(=O)N1Cc1cc(F)cc(C(=O)N2CCn3c(nnc3C(F)(F)F)C2)c1 [Compound 341] was tested, and the pIC50 was 7.11.
CC(C)CC1(c2ccccc2)NC(=N)N(Cc2cccc(C(=O)N3CCN(c4ccccc4)CC3)c2)C1=O (stereo not drawn) [Compound 342, 2-imino-5-(2-methylpropyl)-5-phenyl-3-{3-[(4-phenylpiperazin-1-yl)carbonyl]benzyl} imidazolidin-4-one] was tested, and the pIC50 was 7.10.
Compound N=C1NC(c2ccccc2)(c2ccccc2)C(=O)N1Cc1cccc(C(=O)N2CCn3nc(C(F)(F)F)nc3C2)c1 [Compound 343, 2-imino-5,5-diphenyl-3-(3-{[2-(trifluoromethyl)-5,6-dihydro-[1,2,4]triazolo[1,5-a]pyrazin-7(8H)-yl]carbonyl}benzyl) imidazolidin-4-one] has a pIC50 of 7.10.
For CCOC(=O)NC1CCN(C(=O)c2cc(F)cc(CN3C(=N)NC(c4ccccc4)(c4ccccc4)C3=O)c2)CC1 [Compound 344, ethyl [1-({3-fluoro-5-[(2-imino-5-oxo-4,4-diphenylimidazolidin-1-yl)methyl]phenyl}carbonyl)piperidin-4-yl]carbamate], the pIC50 was 7.09.
For CCCC1(c2ccccc2)NC(=N)N(Cc2cccc(C(=O)N3Cc4cnc(C)nc4C3)c2)C1=O (stereo not drawn) [Compound 345, 2-imino-3-{3-[(2-methyl-5,7-dihydro-6H-pyrrolo[3,4-d]pyrimidin-6-yl)carbonyl]benzyl}-5-phenyl-5-propylimidazolidin-4-one], the pIC50 was 7.09.
Work on CC(C)CC1(c2ccccc2)NC(=N)N(Cc2cccc(C(=O)N3CCC(n4c(=O)[nH]c5nc(F)ccc54)CC3)c2)C1=O (stereo not drawn) [Compound 346, 5-fluoro-1-{1-[(3-{[2-imino-4-(2-methylpropyl)-5-oxo-4-phenylimidazolidin-1-yl]methyl}phenyl)-carbonyl]piperidin-4-yl}-1,3-dihydro-2H-imidazo[4,5-b]pyridin-2-one] yielded a pIC50 of 7.08.
With COC(=O)N1CCN(C(=O)c2cccc(CN3C(=N)NC(c4ccc(F)cc4)(c4cccc(C(N)=O)c4)C3=O)c2)CC1 (stereo not drawn) [Compound 347, methyl 4-[(3-{[4-(3-carbamoylphenyl)-4-(4-fluorophenyl)-2-imino-5-oxoimidazolidin-1-yl]methyl}phenyl)-carbonyl]piperazine-1-carboxylate] the pIC50 was 7.08.
Compound COC(=O)N1CCN(C(=O)c2cccc(CN3C(=N)NC(CCC(C)C)(c4cccc(F)c4)C3=O)c2)CC1 (stereo not drawn) [Compound 348, methyl 4-[(3-{[4-(3-fluorophenyl)-2-imino-4-(3-methylbutyl)-5-oxoimidazolidin-1-yl]methyl}phenyl)-carbonyl]piperazine-1-carboxylate] has a pIC50 of 7.08.
N=C1NC(c2ccccc2)(c2ccccc2)C(=O)N1Cc1cccc(C(=O)N2CCn3cc(C(F)(F)F)nc3C2)c1 [Compound 349, 2-imino-5,5-diphenyl-3-(3-{[2-(trifluoromethyl)-5,6-dihydroimidazo-[1,2-a]pyrazin-7(8H)-yl]carbonyl}-benzyl)imidazolidin-4-one] showed a pIC50 of 7.07.
Work on COC(=O)N1CCN(C(=O)c2cccc(CN3C(=N)NC(c4ccc(F)cc4)(c4cccc(C#N)c4)C3=O)c2)CC1 (stereo not drawn) [Compound 350, methyl 4-[(3-{[4-(3-cyanophenyl)-4-(4-fluorophenyl)-2-imino-5-oxoimidazolidin-1-yl]methyl}phenyl)carbony1] piperazine-1-carboxylate] yielded a pIC50 of 7.07.
CC(C)CCC1(c2ccccc2)NC(=N)N(Cc2cccc(C(=O)N3CCNC(=O)C3)c2)C1=O (stereo not drawn) [Compound 351, 4-[(3-{[2-imino-4-(3-methylbutyl)-5-oxo-4-phenylimidazolidin-1-yl]methyl}-phenyl)carbonyl]piperazin-2-one] gave a pIC50 of 7.06.
CC(=O)N1CCN(C(=O)c2cccc(CN3C(=N)NC(c4ccccc4)(c4ccccc4)C3=O)c2)CC1 [Compound 352, 3-{3-[(4-acetylpiperazin-1-yl)carbonyl]benzyl}-2-imino-5,5-diphenylimidazolidin-4-one] gave a pIC50 of 7.06.
CN1CCN(C(=O)c2cc(F)cc(CN3C(=N)NC(c4ccccc4)(c4ccccc4)C3=O)c2)CC1=O [Compound 353, 4-({3-fluoro-5-[(2-imino-5-oxo-4,4-diphenylimidazolidin-1-yl)methyl]phenyl}carbonyl)-1-methylpiperazin-2-one] was tested, and the pIC50 was 7.05.
Compound COC(=O)N1CCN(C(=O)c2cccc(CN3C(=N)NC(CCC(C)C)(c4cccc(-c5cccnc5)c4)C3=O)c2)CC1 (stereo not drawn) [Compound 354, methyl 4-[(3-{[2-imino-4-(3-methylbutyl)-5-oxo-4-(3-pyridin-3-ylphenyl)imidazolidin-1-yl]methyl}phenyl)carbonyl] piperazine-1-carboxylate] has a pIC50 of 7.05.
In the case of CCOC(=O)NC1CCN(C(=O)c2cccc(CN3C(=N)NC(c4ccccc4)(c4ccccc4)C3=O)c2)CC1 [Compound 355, ethyl [1-({3-[(2-imino-5-oxo-4,4-diphenylimidazolidin-1-yl)methyl]phenyl}carbonyl)piperidin-4-yl]carbamate], the pIC50 was 7.05.
Work on CCc1nnc2n1CCN(C(=O)c1cccc(CN3C(=N)NC(c4ccccc4)(c4ccccc4)C3=O)c1)C2 [Compound 356, 3-{3-[(3-ethyl-5,6-dihydro[1,2,4]triazolo[4,3-a]pyrazin-7(8H)-yl)carbonyl]benzyl}-2-imino-5,5-diphenylimidazolidin-4-one] yielded a pIC50 of 7.04.
CN(C)C(=O)N1CCN(C(=O)c2cccc(CN3C(=N)NC(c4ccccc4)(c4ccccc4)C3=O)c2)CC1 [Compound 357, 4-({3-[(2-imino-5-oxo-4,4-diphenylimidazolidin-1-yl)methyl]phenyl}carbonyl)-N,N-dimethylpiperazine-1-carboxamide] gave a pIC50 of 7.04.
For CN1CCN(C(=O)c2cccc(CN3C(=N)NC(c4ccccc4)(c4ccccc4)C3=O)c2)CC1=O [Compound 358, 4-({3-[(2-imino-5-oxo-4,4-diphenylimidazolidin-1-yl)methyl]phenyl}carbonyl)-1-methylpiperazin-2-one], the pIC50 was 7.03.
N=C1NC(c2ccccc2)(c2ccccc2)C(=O)N1Cc1cccc(C(=O)N2CCN(c3ccc(F)cc3)CC2)c1 [Compound 359, 3-(3-{[4-(4-fluorophenyl)piperazin-1-yl]carbonyl}benzyl)-2-imino-5,5-diphenylimidazolidin-4-one] showed a pIC50 of 7.03.
In the case of CC(C)CCC1(c2cccc(-c3cccnc3)c2)NC(=N)N(Cc2cccc(C(=O)N3Cc4cccnc4C3)c2)C1=O (stereo not drawn) [Compound 360, 3-[3-(5,7-dihydro-6H-pyrrolo[3,4-b]pyridin-6-ylcarbonyl)benzyl]-2-imino-5-(3-methylbutyl)-5-(3-pyridin-3-ylphenyl)imidazolidin-4-one], the pIC50 was 7.02.
